Data published in patent publication US10092584B2 (Achillion Pharmaceuticals, Inc., priority 2015, dated 2018).
Read-outs that look alike come from different tables or passages of the source.

Molecular target: T1, Human Factor D (Homo sapiens, UniProt P00746)
T1 construct: purified from human serum; purchased Complement Technology, Inc; host or cells: human serum
Assay: Human Factor D assay (Example 8)
Type: biochemical
Summary of the method: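 Factor D (from human serum) 80 nM final + cpd, 5 min RT, 50 mM Tris/1M NaCl pH 7.5; add Z-L-Lys-SBzl 100 μM and DTNB 100 μM final. IC50 by nonlinear fit of rates vs [cpd].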

[1] = Table 1, Human Factor D 80 nM, substrate Z-L-Lys-SBzl, read-out: IC50

T1 sequence (P00746 26-253): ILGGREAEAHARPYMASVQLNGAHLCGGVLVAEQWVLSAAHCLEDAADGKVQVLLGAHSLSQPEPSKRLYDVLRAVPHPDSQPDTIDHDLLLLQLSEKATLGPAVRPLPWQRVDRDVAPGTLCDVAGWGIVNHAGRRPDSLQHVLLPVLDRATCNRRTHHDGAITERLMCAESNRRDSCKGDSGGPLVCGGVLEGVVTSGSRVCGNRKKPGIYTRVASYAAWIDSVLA

Row | IC50 [1] [µM] | Compound | IC50 [µM]
1 | – | CC(=O)c1cn(CC(=O)N2C[C@H](F)C[C@H]2C(=O)Nc2cccc(-c3ccccc3Cl)c2F)c2c(C3CC3)cccc12 [Compound 115, (2S,4R)-1-(2-(3-acetyl-7-cyclopropyl-1H-indol-1-yl)acetyl)-N-(2′-chloro-2-fluorobiphenyl-3-yl)-4-fluoropyrrolidine-2-carboxamide] | < 1
2 | – | CC(=O)c1ccc(Cl)c(-c2cccc(NC(=O)[C@@H]3C[C@@H](F)CN3C(=O)Cn3nc(C(N)=O)c4ccccc43)c2F)c1 [Compound 117, 1-(2-((2S,4R)-2-((5′-Acetyl-2′-chloro-2-fluoro-[1,1′-biphenyl]-3-yl)carbamoyl)-4-fluoropyrrolidin-1-yl)-2-oxoethyl)-1H-indazole-3-carboxamide] | < 1
3 | < 1 | Cc1cc2c(s1)c(C(N)=O)nn2CC(=O)N1C[C@H](F)C[C@H]1C(=O)Nc1cccc(Br)n1 [Compound 118, 1-(2-((2S,4R)-2-(6-bromopyridin-2-ylcarbamoyl)-4-fluoropyrrolidin-1-yl)-2-oxoethyl)-5-methyl-1H-thieno[3,2-c]pyrazole-3-carboxamide] | –
4 | – | CC(=O)c1cn(CC(=O)N2C[C@H](F)C[C@H]2C(=O)Nc2cccc(Br)n2)c2ccc(C3(NC(=O)c4ncccn4)CC3)cc12 [Compound 119, N-(1-(3-acetyl-1-(2-((2S,4R)-2-(6-bromopyridin-2-ylcarbamoyl)-4-fluoropyrrolidin-1-yl)-2-oxoethyl)-1H-indol-5-yl)cyclopropyl) pyrimidine-2-carboxamide] | < 1
5 | – | NC(=O)c1nn(CC(=O)N2C[C@H](F)C[C@H]2C(=O)Nc2cccc(-c3cc(OC(F)(F)F)ccc3Cl)c2F)c2ccccc12 [Compound 120, 1-(2-((2S,4R)-2-(2′-chloro-2-fluoro-5′-(trifluoromethoxy)biphenyl-3-ylcarbamoyl)-4-fluoropyrrolidin-1-yl)-2-oxoethyl)-1H-indazole-3-carboxamide] | < 1
6 | – | NC(=O)c1cn(CC(=O)N2C[C@H](F)C[C@H]2c2nc3cc(-c4ccccc4Cl)ccc3[nH]2)c2ccccc12 [Compound 121, 1-(2-((2S,4R)-2-(5-(2-chlorophenyl)-1H-benzo[d]imidazol-2-yl)-4-fluoropyrrolidin-1-yl)-2-oxoethyl)-1H-indole-3-carboxamide] | > 10
7 | – | NC(=O)c1nn(CC(=O)N2C[C@H](F)C[C@H]2C(=O)Nc2cccc(-c3ccc4[nH]cnc4c3Cl)c2F)c2ccccc12 [Compound 122, 1-(2-((2S,4R)-2-(3-(4-chloro-1H-benzo[d]imidazol-5-yl)-2-fluorophenylcarbamoyl)-4-fluoropyrrolidin-1-yl)-2-oxoethyl)-1H-indazole-3-carboxamide] | < 1
8 | – | CC(=O)c1cn(CC(=O)N2C[C@H](F)C[C@H]2C(=O)Nc2cccc(Br)n2)c2ccc(C3(NC(=O)OC(C)(C)C)CC3)cc12 [Compound 123, tert-butyl 1-(3-acetyl-1-(2-((2S,4R)-2-(6-bromopyridin-2-ylcarbamoyl)-4-fluoropyrrolidin-1-yl)-2-oxoethyl)-1H-indol-5-yl)cyclopropyl-carbamate] | < 1
9 | – | CC(=O)c1cn(CC(=O)N2C[C@H](F)C[C@H]2C(=O)Nc2cccc(-c3ccccc3Cl)c2F)c2c(C#Cc3ncc(F)cn3)cccc12 [Compound 124, (2S,4R)-1-(2-(3-acetyl-7-((5-fluoropyrimidin-2-yl)ethynyl)-1H-indol-1-yl)acetyl)-N-(2′-chloro-2-fluorobiphenyl-3-yl)-4-fluoropyrrolidine-2-carboxamide] | < 1
10 | < 1 | CC(=O)c1cn(CC(=O)N2C[C@H](F)C[C@H]2C(=O)Nc2cccc(Br)n2)c2ccc(C3(NC(=O)c4cncnc4)CC3)cc12 [Compound 126, N-(1-(3-acetyl-1-(2-((2S,4R)-2-(6-bromopyridin-2-ylcarbamoyl)-4-fluoropyrrolidin-1-yl)-2-oxoethyl)-1H-indol-5-yl)cyclopropyl) pyrimidine-5-carboxamide] | –
